Experimental data reported in BindingDB's records for doi:10.1124/mol.112.080291 (University of California San Diego, 2014).
“And” between values parts separate entries of the source, which are not always exact repeats. Equal values may be shown once.

Tests used:
Experiment in all cases: Synthesizing Selective Agonists for the ?7 Nicotinic Receptor with in situ Click-Chemistry on Acetylcholine Binding Protein Templates.
[1] = biological target: T1, Soluble acetylcholine receptor (Aplysia californica, UniProt Q8WSF8); conditions: pH 7.4; 20 °C
T1 sequence (Q8WSF8 whole entry): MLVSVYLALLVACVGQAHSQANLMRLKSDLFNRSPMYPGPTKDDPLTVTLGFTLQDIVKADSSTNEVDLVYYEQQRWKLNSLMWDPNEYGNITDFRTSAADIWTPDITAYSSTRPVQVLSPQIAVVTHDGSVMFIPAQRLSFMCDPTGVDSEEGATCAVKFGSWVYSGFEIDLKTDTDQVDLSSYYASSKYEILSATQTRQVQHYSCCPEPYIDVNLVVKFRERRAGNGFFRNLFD
Protocol: (§1) Assay Description 2 Assays used to generate Ki or EC50 values. 1) SPA Assay - Quick screen binding assays were performed using 100 l of 0.2 mg/ml anti-mouse SPA antibody-binding beads (Amersham Biosciences) mixed with 33.6 g of monoclonal anti-FLAG M2 antibody from mouse (Sigma) in 0.1 M NaPO4 buffer, pH 7.0 (SPA mixture). Media (5l) collected 2 days after transfection were added to the mixture and finally 10 l of (+)-[3H]epibatidine (PerkinElmer Life Sciences) was added at a final concentration of 10 nM. Solutions were each counted for 1 min on either a Beckman LS 6500 liquid scintillation counter or Wallac 1450 Microbeta Trilux. Negative and positive controls consisted of media (5 l) from the respective transfections. Nonexpressing mutants were transfected and verified de novo in triplicate. Western immunoblots were also performed upon media (15 l) from transfections to verify the lack of expression. Competition curves and direct binding were measured following the protocol p

[2] = biological target: Neuronal acetylcholine receptor subunit alpha-7 (Homo sapiens, UniProt P36544); conditions: pH 7.4; 37 °C
Neuronal acetylcholine receptor subunit alpha-7, sequence (P36544 whole entry): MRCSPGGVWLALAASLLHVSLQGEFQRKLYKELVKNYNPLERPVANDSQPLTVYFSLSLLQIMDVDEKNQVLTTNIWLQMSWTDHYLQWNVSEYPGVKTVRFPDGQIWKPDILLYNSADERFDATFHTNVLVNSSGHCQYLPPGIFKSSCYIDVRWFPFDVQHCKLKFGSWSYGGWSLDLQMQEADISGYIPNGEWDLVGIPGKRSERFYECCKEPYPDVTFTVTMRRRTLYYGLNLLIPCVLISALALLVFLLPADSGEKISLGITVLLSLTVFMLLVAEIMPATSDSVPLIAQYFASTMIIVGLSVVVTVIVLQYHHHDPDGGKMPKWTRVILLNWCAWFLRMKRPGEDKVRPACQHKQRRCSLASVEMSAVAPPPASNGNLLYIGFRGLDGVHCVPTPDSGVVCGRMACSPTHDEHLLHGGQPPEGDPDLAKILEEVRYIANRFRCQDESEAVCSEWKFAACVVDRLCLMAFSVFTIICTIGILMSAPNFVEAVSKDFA
Protocol: as §1

[3] = biological target: T2, 5-hydroxytryptamine receptor 3A (Mus musculus, UniProt P23979); conditions: pH 7.4; 37 °C
T2 sequence (P23979 whole entry): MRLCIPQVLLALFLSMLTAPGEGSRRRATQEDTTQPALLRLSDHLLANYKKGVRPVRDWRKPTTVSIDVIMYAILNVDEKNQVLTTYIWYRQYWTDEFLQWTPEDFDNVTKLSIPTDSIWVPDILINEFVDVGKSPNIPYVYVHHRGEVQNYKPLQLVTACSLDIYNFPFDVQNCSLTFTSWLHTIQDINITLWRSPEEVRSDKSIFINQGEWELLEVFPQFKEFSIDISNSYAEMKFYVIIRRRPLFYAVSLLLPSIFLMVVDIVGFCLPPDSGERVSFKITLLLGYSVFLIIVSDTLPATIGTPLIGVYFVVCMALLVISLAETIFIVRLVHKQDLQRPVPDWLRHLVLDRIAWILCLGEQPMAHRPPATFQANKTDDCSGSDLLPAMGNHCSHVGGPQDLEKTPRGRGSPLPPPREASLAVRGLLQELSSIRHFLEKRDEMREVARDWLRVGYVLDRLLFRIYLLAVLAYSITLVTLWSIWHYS
Protocol: as §1

[4] = biological target: Acetylcholine-binding protein (Lymnaea stagnalis, UniProt P58154); conditions: pH 7.4; 20 °C
Acetylcholine-binding protein, sequence (P58154 whole entry): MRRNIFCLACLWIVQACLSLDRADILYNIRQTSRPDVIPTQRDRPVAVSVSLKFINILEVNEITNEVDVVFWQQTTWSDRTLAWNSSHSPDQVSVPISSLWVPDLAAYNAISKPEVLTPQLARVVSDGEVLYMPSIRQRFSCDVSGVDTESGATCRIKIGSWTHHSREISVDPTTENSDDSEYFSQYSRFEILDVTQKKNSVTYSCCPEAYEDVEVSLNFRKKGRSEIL
Protocol: as §1

[5] = biological target: Neuronal acetylcholine receptor subunit alpha-4 (Homo sapiens, UniProt P43681); conditions: pH 7.4; 37 °C
Neuronal acetylcholine receptor subunit alpha-4, sequence (P43681 whole entry): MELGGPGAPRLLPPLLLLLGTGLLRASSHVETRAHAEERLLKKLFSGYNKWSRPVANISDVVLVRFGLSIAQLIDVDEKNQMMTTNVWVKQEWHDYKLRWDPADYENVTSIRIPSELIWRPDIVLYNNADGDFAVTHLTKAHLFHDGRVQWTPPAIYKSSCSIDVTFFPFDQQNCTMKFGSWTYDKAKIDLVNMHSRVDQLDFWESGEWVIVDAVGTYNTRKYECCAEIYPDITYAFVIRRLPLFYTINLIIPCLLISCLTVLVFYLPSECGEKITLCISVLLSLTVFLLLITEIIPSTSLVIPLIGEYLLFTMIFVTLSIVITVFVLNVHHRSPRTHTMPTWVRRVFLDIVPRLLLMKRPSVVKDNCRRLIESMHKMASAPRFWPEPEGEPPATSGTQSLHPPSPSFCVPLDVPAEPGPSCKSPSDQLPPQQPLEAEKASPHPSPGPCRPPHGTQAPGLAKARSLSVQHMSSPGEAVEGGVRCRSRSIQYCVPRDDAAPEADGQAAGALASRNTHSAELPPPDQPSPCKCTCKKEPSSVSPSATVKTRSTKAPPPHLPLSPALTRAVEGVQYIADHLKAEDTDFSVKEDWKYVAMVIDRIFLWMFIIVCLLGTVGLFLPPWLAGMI
Protocol: as §1

Structure (SMILES)	Ki [1]	EC50 [2] [nM]	Ki [3] [µM]	Ki [4] [nM]	Ki [5] [µM]
C[N+]1(C)[C@@H]2CC[C@H]1C[C@H](n1cc(COc3ccccc3C3CCCC3)nn1)C2 [18q]	260 nM and 270 nM and 440 nM	400	> 30	70	4
CC(=O)NCc1cn([C@@H]2C[C@H]3CC[C@@H](C2)[N+]3(C)C)nn1 [10q]	800 nM and > 5000 nM and 900 nM	5000	> 30	> 5000	> 30
